# Reference: publication PMC6422671 (British Journal of Clinical Pharmacology, 2019)
# Where two headings read alike, the source gives them in different places.
# Test: Plasma pharmacokinetics after single oral dose, phase I; data geometric mean (coefficient of variation), t max median (range)
# Format: in vivo, healthy men
# Conditions: for AUC(0-inf) / AUC(0-t) / Cmax / Tmax / Vd/F / half-life: male, human, plasma; for Tmax: median (range); for Vd/F: read-out: Vz/F
# Experimental: Participants fasted overnight for at least 10 hours before dosing. […] Participants resided at the study centre until 48 hours postdose and attended a follow‐up visit 7–10 days after dosing.
# This dose was selected by the Safety Review Committee based on all available data for one or more higher doses in part A. Participants once again resided at the study centre until 48 hours postdose and attended a follow‐up visit 7–10 days after dosing.
# Blood samples were collected only up to 48 hours after dosing for the first cohort; the sampling schedule was amended thereafter to include the later time points. Samples for determination of AZD4831 in plasma were analysed by Covance Laboratories Ltd. (Harrogate, UK). […] This method was validated prior to sample analysis in the range 2–2000 nmol L^−1 in plasma, using a 25 μL sample aliquot.
# [1] = 45 mg after high-fat, high-calorie meal vs fasting
structure (smiles),measurement,setting,value
C[C@@H](N)c1cc(Cl)ccc1Cn1c(=S)[nH]c(=O)c2[nH]ccc21 [AZD4831],delay of t max by food,[1],2.5 h
same,reduction of Cmax by food,[1],44%
same,effect of food on AUC0–∞,45 mg fed vs fasted,slightly reduced
same,effect of food on t 1/2λz,45 mg fed vs fasted,slightly increased
same,AUC(0-inf),"oral, 5 mg, 5 mg fasted",0.514 µM·h
same,AUC(0-t),"oral, 5 mg, 5 mg fasted",0.294 µM·h
same,Cmax,"oral, 5 mg, 5 mg fasted",15 nM
same,Tmax,"oral, 5 mg, 5 mg fasted",1 h
same,Vd/F,"oral, 5 mg, 5 mg fasted, n = 4",1580 L
same,half-life,"oral, 5 mg, 5 mg fasted, n = 4, read-out: t 1/2λz (converted)",37.6 h
same,AUC(0-inf),"oral, 15 mg, 15 mg fasted",1.67 µM·h
same,AUC(0-t),"oral, 15 mg, 15 mg fasted",1.44 µM·h
same,Cmax,"oral, 15 mg, 15 mg fasted",83.4 nM
same,Tmax,"oral, 15 mg, 15 mg fasted",0.74 h
same,Vd/F,"oral, 15 mg, 15 mg fasted",1750 L
same,half-life,"oral, 15 mg, 15 mg fasted, read-out: t 1/2λz (converted)",45.2 h
same,AUC(0-inf),"oral, 45 mg, 45 mg fasted",6.69 µM·h
same,AUC(0-t),"oral, 45 mg, 45 mg fasted",6.13 µM·h
same,Cmax,"oral, 45 mg, 45 mg fasted",326 nM
same,Tmax,"oral, 45 mg, 45 mg fasted",0.51 h
same,Vd/F,"oral, 45 mg, 45 mg fasted",1450 L
same,half-life,"oral, 45 mg, 45 mg fasted, read-out: t 1/2λz (converted)",49.9 h
same,AUC(0-inf),"oral, 45 mg, 45 mg fed",5.79 µM·h
same,AUC(0-t),"oral, 45 mg, 45 mg fed",5.37 µM·h
same,Cmax,"oral, 45 mg, 45 mg fed",184 nM
same,Tmax,"oral, 45 mg, 45 mg fed",3 h
same,Vd/F,"oral, 45 mg, 45 mg fed",1940 L
same,half-life,"oral, 45 mg, 45 mg fed, read-out: t 1/2λz (converted)",58 h
same,Cmax,"oral, 135 mg, 135 mg fasted",1090 nM
same,Tmax,"oral, 135 mg, 135 mg fasted",0.74 h
same,Vd/F,"oral, 135 mg, 135 mg fasted",1450 L
same,half-life,"oral, 135 mg, 135 mg fasted, read-out: t 1/2λz (converted)",48.4 h
same,Cmax,"oral, 405 mg, 405 mg fasted",3040 nM
same,Tmax,"oral, 405 mg, 405 mg fasted",0.75 h
same,Vd/F,"oral, 405 mg, 405 mg fasted",1270 L
same,half-life,"oral, 405 mg, 405 mg fasted, read-out: t 1/2λz (converted)",38.1 h
same,half-life,"po, single oral doses 5–405 mg fasted, range across doses, read-out: plasma half-life (t 1/2λz estimates)",38.2 to 50 h
